Laboratory results published in a melting point compilation (Tetko et al.; mined from patent text by program, amines drawn as free bases though some values may be those of a salt).

melting point	Structure (SMILES)
119 to 120 °C	COc1cc(CC(=O)NCCCc2ccc(C)c(C)c2)ccc1OCCO
104 to 105 °C	COC(=O)C(C)c1ccc2oc(-c3c(F)cccc3Cl)nc2c1 (stereo not drawn)
71 to 77 °C	Cc1cc(C2=C(C=CC3CC(O)CC(=O)O3)C(C)(C)CC(N3C(=O)CCC3=O)C2)ccc1F (stereo not drawn)
225 to 227 °C	CC(=O)n1cc(C2C(=O)CC(C)(C)CC2=O)c2ccccc21
220 to 222 °C	COc1cc(C2CC(=O)NC(=O)C2)cc2c(C)c(C)oc12
107 to 108 °C	C#CCOc1ccc(CCNC(=O)C(=NOC)c2ccc(Cl)c(Cl)c2)cc1OC
237 to 239 °C	CC(C)C1Nc2ccc(S(=O)(=O)N3CCCCC3)cc2S(=O)(=O)N1 (stereo not drawn)
278 to 280 °C	O=C1CCC(N2Cc3cc(CNC(=O)Nc4ccc(Br)cc4)ccc3C2=O)C(=O)N1 (stereo not drawn)
217 to 218 °C	CC1(C)OCC(C(O)CNC(=O)c2cc(C(=O)NCC(O)C3COC(C)(C)O3)cc(S(=O)(=O)Nc3ccc(F)c(C(F)(F)F)c3)c2)O1 (stereo not drawn)
159 to 162 °C	O=C(c1cccc(O)c1)C(O)c1cccc(O)c1 (stereo not drawn)
115 to 117 °C	OCC1COC(Cc2nc[nH]n2)(c2ccc(Cl)cc2)O1 (stereo not drawn)
109 to 111 °C	CCOC(=O)[C@H](Cc1cccc(Oc2ccc(O)cc2)c1)NC(=O)C(F)(F)F
70 to 71 °C	Cc1cc2c(c(C)c1C)C(c1ccc(C(C)C)cc1)CO2 (stereo not drawn)
159 to 161 °C	COc1ccc(CCNC(=O)C2=C(C(=O)Nc3cc(OC4CCCC4)c(Cl)cc3F)CCCC2)cc1OC
> 280 °C	O=C(Nc1cccc(-c2ncnc3[nH]c(-c4ccncc4)cc23)c1)c1cccc(C(F)(F)F)c1
206 to 209 °C	O=C(Nc1ccc2c3c(oc2c1)CCC(O)C3O)c1c(Cl)cccc1Cl (stereo not drawn)
243 to 244 °C	CN1CCOc2cc(-c3cnc4[nH]cc(C(=O)C5(C)CCCCC5)c4n3)ccc21

melting point	Structure (SMILES)
151 to 153 °C	Cc1cn(-c2ccc(N3C[C@H](COS(C)(=O)=O)OC3=O)cc2F)cn1
110 °C	Cc1ccc(S(=O)(=O)n2ccc3c(C(=O)c4ccccc4O)cccc32)cc1
148 to 150 °C	CC(=O)c1cc(OCc2ccccc2)cc2c1OC(C)(C)C(=O)N2
151 to 153 °C	Cc1nc(N2CCN(Cc3nccc4ccccc34)C2=O)sc1C(=O)NCc1cccnc1
170 to 171 °C	COC(=O)c1ccc(-c2ccc3cc(OCc4ccccc4)c(C45CC6CC(CC(C6)C4)C5)cc3c2)s1
156 to 158 °C	COC(=O)CCS(=O)(=O)c1ccc(NC(C)=O)cc1
165 to 173 °C	CS(=O)(=O)NC(CCC(O)(Cn1cncn1)c1ccc(F)cc1F)C(=O)O (stereo not drawn)
242 to 243 °C	CC12CCC(C1)C1(C)Oc3ccc(C(=O)c4ccc(C=CC(=O)O)cc4)cc3C21C (stereo not drawn)
58 to 59 °C	COc1cccc(CSCCNC(=O)c2c(Cl)cccc2OC)c1
34 °C	COc1ccc2ccc(OS(=O)(=O)C(F)(F)F)cc2c1
96 °C	CCCCCCCCCCCCCCCCCCOC(=O)c1cccc(NC(=O)NS(=O)(=O)c2ccc(C)cc2)c1
180 to 183 °C	Cn1cc(C(=O)NCc2ccc(Cl)cc2)c(=O)c2cc(CN3CCOCC3)cc(C#CCO)c21
57 to 58 °C	N[C@@H](Cc1ccccc1C(F)(F)F)[C@H](O)c1ccc(F)cc1 (racemic)
149 to 151 °C	O=C(O)c1ccccc1C(=O)OCC1CN(C(=O)Oc2ccccc2)CCC1c1ccc(F)cc1 (stereo not drawn)
245 to 247 °C	CC(=O)NCC1CN(c2ccc(N3CCN(c4nc(=O)n(-c5ccccc5)s4)CC3)c(F)c2)C(=O)O1 (stereo not drawn)
227 to 230 °C	CNC(=O)c1ccc(-c2ccc3nnn(Cc4ccc5ncccc5c4)c3n2)cc1Cl
160 to 162 °C	CCOC(=O)CCc1ccc(C(C)(C)C)c(NC(=O)CC2c3ccccc3Oc3ccccc32)c1

Continued, molecule first:

Structure (SMILES)	melting point
Fc1ccc2c(c1F)OCCN2	48 to 54 °C
COC(=O)C(=O)c1c[nH]c2ccccc12	226 to 228 °C
CC(=O)n1ncc2c(O)cc(C)cc21	191 to 192 °C
CCn1cc(C2CCC(=O)CC2)c2cc(C#N)ccc21	124 °C
CCOc1nsc(NC(=O)NC)c1C(N)=O	240 to 241 °C
CC1C(=O)Nc2cc(N)c(N)cc21 (stereo not drawn)	> 300 °C
Cc1sc(-n2cccc2)c(C(=O)N2CCCC2)c1C	100 °C
COc1cc(OC)c2c(=O)[nH]c(-c3cc(C)c(OCCN4CCOCC4)c(C)c3)cc2n1	212 to 213 °C
CCOCCOCCOc1ccc(C(=O)CN(Cc2ccccc2)Cc2ccccc2)cc1C(N)=O	91.5 to 92.5 °C
Nc1cnn2c1NCC2	177 to 179 °C
Cc1cc(O)n2nc(CN=[N+]=[N-])nc2n1	193 to 194 °C
Fc1cc2nn(CCC#Cc3ccccn3)nc2cc1F	131 to 132 °C
COc1ccc(S(=O)(=O)n2ccc3ccnc(-c4ccc(Cl)cc4)c32)cc1	126 to 128 °C
CCOC(=O)c1cnc(-c2ccc(Cl)cc2)s1	144 to 145 °C
CN1c2ccccc2C2CCN(CCC(C(=O)N3CCCCCC3)c3ccccc3)CC21 (stereo not drawn)	150 °C
COc1nc2cc(F)cc(CN=[N+]=[N-])c2nc1OC	75 to 78 °C
COC1=C(C)C(=O)OC1O (stereo not drawn)	79 °C
[N-]=[N+]=NCCO/N=C(\C(=O)O)c1csc(N)n1	180 °C
CCCc1c(C(=O)OC)[nH]c2c(C)ccc(Cl)c12	109 to 110 °C
O=C1c2ccccc2C(=O)N1CCc1nnc2n1-c1ccc(Cl)cc1C(c1ccccc1)=NC2	133 to 134 °C

Structure (SMILES)	melting point
CCOC(=O)Cn1ccn2nc(-c3ccccc3)cc12	85 to 87 °C
Cn1c(OCC(F)(F)C(F)F)n[nH]c1=O	101 °C
COc1cc2[nH]c(N(C)Cc3cccc(C4=NCCN4C)c3)nc(=O)c2c(C)c1OC	145 to 148 °C
COc1ccc(N2CCN(c3ccc(N4C(=O)NC(C)(C)C4=O)cc3)CC2)cc1	255 °C
CC(=O)OC1CCC2(C)C(CCC3C4CCC(C(C)=O)C4(C)CC(O)C32Cl)C1 (stereo not drawn)	175 to 179 °C
COc1ccc(N2c3ccccc3S(=O)(=O)c3ccccc32)cc1	265 to 266 °C
CC1CCN(c2nc(N)c3ccccc3n2)CC1	190 °C
O=C1c2ccccc2C(=O)N1OCCCN1CCN(c2ccc3ccccc3n2)CC1	158 to 160 °C
N#CCc1c[nH]c2ccc(CS(=O)(=O)Oc3ccccc3)cc12	134 to 135 °C
CON(C)C(=O)[C@@H](CO)NC(=O)OC(C)(C)C	115 to 116 °C
CC(C)(C)OC(=O)N1CCN(c2nsnc2Cl)CC1	83 to 86 °C
Oc1ccc2c(-c3ccccc3O)noc2c1	164 to 166 °C
COc1ccc(-c2cc(C(C)(C)C)sc2-c2ccc(OC)cc2)cc1	112 to 115 °C
CCCCC=C1SC(=S)N(N=c2sc3ccccc3s2)C1=O	210 to 212 °C
CCN1Cc2ccccc2P1(=O)c1ccccc1 (stereo not drawn)	94 to 95 °C
C#CCOc1cc(-n2nnn(CC)c2=O)c(Cl)cc1F	88 to 89 °C
CC1(C)CCC(C)(C)c2cc(Br)c(O)cc21	90 to 94 °C
N#C/C=C1\CCc2cc(Br)c3c(c21)CCO3	200 to 203 °C
Cc1c(-c2ccccc2)[nH]c(=O)n1C1CCN(Cc2cccc(Cl)c2)CC1	248 to 249 °C
